Measurements published in paper PMC10961359, “Targeting hexokinase 2 for oral cancer therapy: structure-based design and validation of lead compounds” (Frontiers in Pharmacology, 2024).

Assays:
HFF1 = experiment: Cytotoxicity in normal HFF1 cells; format: cell-based, human
FaDu cells [1] = experiment: Cell cycle analysis (propidium iodide, flow cytometry), FaDu; format: cell-based; conditions: 10 and 30 μM, 72 h
Procedure: (§1) FaDu and Cal27 cells were treated with the test compounds (0.5 million cells per treatment) for 72 h, and harvested for cell cycle analysis (Cat# BD340242) and apoptosis analysis (Cat# BD556547) by flow cytometry according to manufacturer’s instructions.
(§2) To determine the effect of HK2 inhibition in the progression of the cell cycle, flow cytometric analysis of compound-treated FaDu and Cal27 cells was carried out 72 h post-treatment. Cell cycle analysis is carried out to quantify the DNA content and estimate the percentages of the cell population in different cell cycle phases via propidium iodide staining. […] To determine the apoptosis-inducing activity of HK2 inhibitors, 10 and 30 μM of compounds H2 and H10 treated FaDu and Cal27 cells were stained with annexin V conjugated with FITC, followed by propidium iodide staining.

FaDu cells [2] = experiment: 2-NBDG glucose uptake assay (flow cytometry), FaDu; format: cell-based; conditions: 10 μM and 30 μM, 72 h, vs DMSO control
Procedure: (§3) FaDu and Cal27 cells were treated with test compounds (0.2 million cells per treatment) and were incubated for 1 h with 100 μM of 2-NBDG (Invitrogen, N13195), in glucose free medium, washed with ice-cold PBS, and re-suspended in 500 μL of PBS and maintained on ice to perform flow cytometric analyses within 30 min. The mean fluorescent intensity (MFI) readout reflects the amount of fluorescent glucose analog taken up by the cells, providing insight into their glucose uptake capacity. The percent (%) cell population positive for glucose uptake (shown with a right shift of the histogram peaks) were also plotted for both the cell lines. For MMP analysis, cells were incubated with 200 nM of TMRE (Invitrogen, T669) for 30 min. For each measurement, data was collected for 10,000 events using a BD FACS Aria III (Becton Dickinson, San Jose, CA) instrument.
2-[N-(7-Nitrobenz-2-oxa-1,3-diaxol-4-yl) amino]-2-deoxyglucose (2-NBDG) uptake into cells happens via glucose transporters and post uptake 2-NBDG gets phosphorylated by hexokinases. Since cancer cells represent higher glycolytic activity, the inhibition of HK2 activity in cancer cells is actively reflected in the inhibition of 2-NBDG uptake ([Hung et al., 2022]; [Li et al., 2022]). […] In this assay, the MFI of intracellular 2-NBDG serves as a quantitative measure of cellular glucose uptake. […] This finding is further supported by the increased % population of 2-NBDG positive cells in Cal27 cells compared to FaDu cells (Figure 3).

Cal27 spheroids = experiment: 3D spheroid culture of Cal27 cells; format: cell-based
Procedure: Cal27 cells were seeded at a density of 10,000 cells per well in a 96-well plate coated with 1.5% agarose in incomplete medium. For the prophylactic treatment, medium containing the compounds was added to each well after 6 h of seeding. For treatment, compounds were added after 48 h of seeding. After incubation with the compounds, spheroids were imaged using phase-contrast microscopy to assess the morphology and size. Subsequently, the spheroids were pooled and dissociated into single cell suspension with trypsin for 10 min, washed with PBS and stained with propidium iodide (Cat# BD556547) to analyze the number of apoptotic cells using flow cytometry. For the analysis of spheroid images, each image was processed using ImageJ software where the threshold of each 8-bit image was adjusted to differentiate the darker spheroid area (the inner core) from the lighter spheroid area (the peripheral layers). Subsequently, the darker and lighter areas were measured in pixel square units using the ‘analyze particles’ option in ImageJ.
Cells plated in monolayer cultures might behave differently as compared to 3D cultures. The 3D cultures can better mimic the tumor development and serve as a better tool for drug screening ([Zanoni et al., 2016]). Therefore, spheroid cultures of Cal27 cells were prepared and treated with lead H2. […]

FaDu cells [3] = experiment: Mitochondria membrane potential by TMRE uptake, FaDu; format: cell-based; conditions: 30 μM, 4 h
Procedure: as §3
(§4) Mitochondria utilize the oxidizable substrates to produce a membrane potential as the proton gradient ([Sivandzade et al., 2019]). […] To determine the change in MMP post-treatment with HK2 inhibitors, the cells were treated with 200 nM of TMRE (tetramethyl rhodamine ethyl ester, a cell-permeant cationic dye readily sequestered by active mitochondria) and flow cytometric analyses of TMRE uptake was carried out. […]

Cal27 cells = experiment: Cell cycle analysis (propidium iodide, flow cytometry), Cal27; format: cell-based; conditions: Cal27, 10 and 30 μM, 72 h
Procedure: as §1, §2

[4] = system: mitochondrial HK2 (mitoHK2) in Cal27 cells; experiment: Western blot fractionation, mitoHK2 dissociation; format: cell-based; conditions: 4 h
Procedure: Cal27 cells were treated with the test compound (1 million cells per treatment for 4 h) and were processed for mitochondria isolation using a homogenization buffer containing 210 mM mannitol, 70 mM sucrose, 5 mM tris-HCl, (pH 7.5) and 1 mM EDTA (pH 7.5). The cell pellet was sheared with a total of 90 strokes in the homogenization buffer in a span of 1 h on ice. The lysate was centrifuged at 800 rpm for 10 min and the mitochondria enriched supernatant was isolated. The pellet was again lysed using RIPA lysis buffer to obtain the cytosolic fraction. The mitochondrial fractions and the cytosolic fractions were loaded on a 10% SDS-PAGE gel. The antibodies used were anti-HK2 antibody (CST, Cat#2867), anti β-actin antibody (CST, Cat#4970) and mitochondrial marker anti-VDAC antibody (CST, Cat# 4661). The whole cell lysates were obtained using RIPA lysis buffer alone. The quantifications were performed using ImageJ software.
as §4

For `COc1ccc(CNC(=O)c2nc3ccccc3s2)cc1O` [Compound 14, N-(3-hydroxy-4methoxybenzyl)benzo[d]thiazole-2-carboxamide], the “Selectivity index (Cal27)” value (HFF1; CC50/GI50, HFF1 vs Cal27) was greater than 4.6, the “Selectivity index (FaDu)” value (HFF1; CC50/GI50, HFF1 vs FaDu) was greater than 1.6 and the subG1 phase population (FaDu cells [1]) was “increase in subG1 phase population”. For the same compound, the “2-NBDG MFI” value (FaDu cells [2]) was “significant reduction”, the spheroid growth (Cal27 spheroids; prophylactic and therapeutic treatment) was “reduction of spheroid growth” and the “population of dead cells in spheroids” value (Cal27 spheroids; propidium iodide staining at the end of the study) was “increase in the population of dead cells”. The “MMP reduction compared to H10 and CCCP” value (FaDu cells [3]) was “more effective in reducing the MMP”, the “effect on cell cycle progression” value (Cal27 cells) was “G0/G1 phase arrest” and the “mitochondrial HK2 (mitoHK2) dissociation” value ([4]; Cal27, 30 μM) was “induced the dissociation of mitoHK2”. The “expression of total HK2 protein” value ([4]; Cal27 whole cell lysate, 30 μM) was “without altering the expression of total HK2 protein”.
